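Dose response: 5 concentrations. Exposure: 48 h. Format: 96-well plates. Endpoint: linear interpolation; highest concentration if not reached. GI50 marks 50% less growth.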 Activity calls are given as the source filed them. Cut-off read from the data, not from the text of the source: active = GI50 up to about 1.1 µM and inactive = higher. *1 amine or outer side, *2 acyl side, *3 side chain or, on linkers, in order; H or OH if unused. Where a SMILES comes first, the peptide text is derived from it. The star is where a group is joined. γGlu = O=C(O)[CH](CCC(=O)[*:2])N[*:1]; NHOH = ON*
Experiments:
Assay in all cases: growth of human tumour cells (NCI), 48 h
Hs-578T = system: Hs-578T
U-251 = system: U-251
ACHN = system: ACHN
DU-145 = system: DU-145
UACC-257 = system: UACC-257
MCF7 = system: MCF7
RPMI-8226 = system: RPMI-8226
MDA-MB-231 = system: MDA-MB-231
HCT-15 = system: HCT-15
EKVX = system: EKVX
CCRF-CEM = system: CCRF-CEM
SK-MEL-5 = system: SK-MEL-5
TK-10 = system: TK-10
SN12C = system: SN12C
A549 = system: A549
HOP-62 = system: HOP-62
M14 = system: M14
MDA-MB-435 = system: MDA-MB-435
A498 = system: A498

Compound	GI50 (Hs-578T)	GI50 (U-251)	GI50 (ACHN)	GI50 (DU-145)	GI50 (UACC-257)	GI50 (MCF7)	GI50 (RPMI-8226)	GI50 (MDA-MB-231)	GI50 (HCT-15)	GI50 (EKVX)	GI50 (CCRF-CEM)	GI50 (SK-MEL-5)	GI50 (TK-10)	GI50 (SN12C)	GI50 (A549)	GI50 (HOP-62)	GI50 (M14)	GI50 (MDA-MB-435)	GI50 (A498)
CC(=O)NC1c2ccccc2C(C)(C)C12CCC1(CC2)OCCO1 (stereo not drawn)	> 100 µM (inactive)	> 100 µM (inactive)	> 100 µM (inactive)	> 100 µM (inactive)	> 100 µM (inactive)	> 100 µM (inactive)	> 100 µM (inactive)	> 100 µM (inactive)	> 100 µM	> 100 µM (inactive)	> 100 µM (inactive)	> 100 µM (inactive)	> 100 µM (inactive)	> 10 µM (inactive)	> 100 µM (inactive)	> 100 µM (inactive)	> 100 µM (inactive)	–	–
CNC(=O)Oc1ccc(-c2cn3cc(OC(=O)NC)ccc3n2)cc1	–	36.9 µM (inactive)	29 µM (inactive)	68.9 µM (inactive)	> 100 µM (inactive)	32.4 µM (inactive)	19.8 µM (inactive)	> 100 µM (inactive)	36.1 µM	96.4 µM (inactive)	17.9 µM (inactive)	26.7 µM (inactive)	91.6 µM (inactive)	42.8 µM (inactive)	44.1 µM (inactive)	80.4 µM (inactive)	41.7 µM (inactive)	31.7 µM (inactive)	66.4 µM (inactive)
Cc1ccc(C2CC(c3ccc([N+](=O)[O-])cc3)=Nc3ccccc3S2)cc1 (stereo not drawn)	–	–	27.6 µM (inactive)	–	28.6 µM (inactive)	–	15.6 µM (inactive)	–	18 µM	42.6 µM (inactive)	12.9 µM (inactive)	17.1 µM (inactive)	34.8 µM (inactive)	25.5 µM (inactive)	22.3 µM (inactive)	61.5 µM (inactive)	28.3 µM (inactive)	–	16.3 µM (inactive)
C=C1CN=C(Nc2ccc(Cl)cc2)S1	> 100 µM (inactive)	93.3 µM (inactive)	> 100 µM (inactive)	> 100 µM (inactive)	> 100 µM (inactive)	45.6 µM (inactive)	83.8 µM (inactive)	> 100 µM (inactive)	> 100 µM	> 100 µM (inactive)	71 µM (inactive)	> 100 µM (inactive)	> 100 µM (inactive)	> 100 µM (inactive)	> 100 µM (inactive)	> 100 µM (inactive)	> 100 µM (inactive)	–	> 100 µM (inactive)
NC(CCC(=O)NC(CCC(=O)NO)C(=O)NCC(=O)O)C(=O)O (stereo not drawn) (γGlu-Glu(NHOH)-Gly-OH; configuration not given here)	–	> 100 µM (inactive)	> 100 µM (inactive)	> 100 µM (inactive)	> 100 µM (inactive)	> 100 µM (inactive)	> 100 µM (inactive)	> 100 µM (inactive)	> 100 µM	> 100 µM (inactive)	> 100 µM (inactive)	> 100 µM (inactive)	> 100 µM (inactive)	> 100 µM (inactive)	> 100 µM (inactive)	> 100 µM (inactive)	> 100 µM (inactive)	> 100 µM (inactive)	> 100 µM (inactive)
COc1cc(O)c2c(=O)c(O)c(-c3ccc(O)c(OC)c3)oc2c1 [RHAMNAZIN]	–	2.19 µM (inactive)	–	> 100 µM (inactive)	> 100 µM (inactive)	2.72 µM (inactive)	5.98 µM (inactive)	5.57 µM (inactive)	> 19.6 µM	> 22.3 µM (inactive)	2.92 µM (inactive)	–	> 100 µM (inactive)	> 100 µM (inactive)	> 22.9 µM (inactive)	–	4.66 µM (inactive)	–	2.73 µM (inactive)
COc1ccc2c(C)cc(C)nc2n1	–	> 100 µM (inactive)	> 100 µM (inactive)	> 100 µM (inactive)	> 100 µM (inactive)	> 100 µM (inactive)	> 100 µM (inactive)	> 100 µM (inactive)	> 100 µM	> 100 µM (inactive)	> 100 µM (inactive)	> 100 µM (inactive)	> 100 µM (inactive)	> 100 µM (inactive)	> 100 µM (inactive)	> 100 µM (inactive)	> 100 µM (inactive)	> 100 µM (inactive)	> 100 µM (inactive)
C[Si](C)(C)C#CCOC=C1CC1	> 100 µM (inactive)	> 100 µM (inactive)	> 100 µM (inactive)	> 100 µM (inactive)	> 100 µM (inactive)	> 100 µM (inactive)	–	> 100 µM (inactive)	> 100 µM	> 100 µM (inactive)	34.4 µM (inactive)	> 100 µM (inactive)	> 100 µM (inactive)	> 100 µM (inactive)	> 100 µM (inactive)	> 100 µM (inactive)	> 100 µM (inactive)	–	–
[O-][n+]1c(CN2CCCCC2)nc2cccc3c2c1-c1ccccc1-3	–	29.4 µM (inactive)	18.6 µM (inactive)	17.9 µM (inactive)	18.4 µM (inactive)	4.22 µM (inactive)	23.7 µM (inactive)	23 µM (inactive)	26.9 µM	18.4 µM (inactive)	–	16.1 µM (inactive)	27.2 µM (inactive)	17.1 µM (inactive)	15.7 µM (inactive)	19.6 µM (inactive)	15.9 µM (inactive)	32.1 µM (inactive)	18.2 µM (inactive)
COc1cc2c3c(c1OC)Oc1ccc(cc1)CC1c4c(cc(OC)c(OC)c4Oc4ccc(cc4)CC3N(C)CC2)CCN1C (stereo not drawn)	–	15.8 µM (inactive)	26.2 µM (inactive)	–	13.8 µM (inactive)	–	25.6 µM (inactive)	–	–	67.6 µM (inactive)	18.5 µM (inactive)	16.7 µM (inactive)	22.1 µM (inactive)	19 µM (inactive)	26.2 µM (inactive)	22.4 µM (inactive)	18.8 µM (inactive)	–	0.0169 µM (active)
Cc1nc2c(=O)[nH]c(=O)n(C)c2[nH]c1=O.c1ccncc1	–	> 100 µM (inactive)	> 100 µM (inactive)	–	> 100 µM (inactive)	–	> 100 µM (inactive)	–	> 100 µM	> 100 µM (inactive)	10 µM (inactive)	> 100 µM (inactive)	> 100 µM (inactive)	> 100 µM (inactive)	> 100 µM (inactive)	> 100 µM (inactive)	> 100 µM (inactive)	–	> 100 µM (inactive)
OC[C@H]1CCCC1O (stereo partly drawn)	–	> 100 µM (inactive)	> 100 µM (inactive)	> 100 µM (inactive)	> 100 µM (inactive)	> 100 µM (inactive)	> 100 µM (inactive)	> 100 µM (inactive)	> 100 µM	–	> 100 µM (inactive)	> 100 µM (inactive)	> 100 µM (inactive)	> 100 µM (inactive)	> 100 µM (inactive)	–	> 100 µM (inactive)	> 100 µM (inactive)	> 100 µM (inactive)
CC1(C)O[C@H]2OC(CO[Si](C)(C)C(C)(C)C)C(N=[N+]=[N-])[C@H]2O1 (stereo partly drawn)	23.6 µM (inactive)	20.6 µM (inactive)	18.7 µM (inactive)	–	18 µM (inactive)	20.7 µM (inactive)	13 µM (inactive)	–	21.1 µM	22.8 µM (inactive)	16.6 µM (inactive)	–	19.1 µM (inactive)	20 µM (inactive)	18.2 µM (inactive)	19.2 µM (inactive)	19.2 µM (inactive)	25.8 µM (inactive)	25 µM (inactive)
CCOC(=O)C(NC(=O)Nc1ccccc1F)(OC)C(F)(F)F (stereo not drawn)	> 100 µM (inactive)	> 100 µM (inactive)	> 100 µM (inactive)	–	> 100 µM (inactive)	–	> 100 µM (inactive)	–	> 100 µM	> 100 µM (inactive)	> 100 µM (inactive)	> 100 µM (inactive)	> 100 µM (inactive)	> 100 µM (inactive)	> 100 µM (inactive)	–	> 100 µM (inactive)	> 100 µM (inactive)	> 100 µM (inactive)
c1ccc2c(c1)NC(C1OC3CCCN3C1C1Nc3ccccc3S1)S2 (stereo not drawn)	> 100 µM (inactive)	80.2 µM (inactive)	> 100 µM (inactive)	> 100 µM (inactive)	48.3 µM (inactive)	44.2 µM (inactive)	23 µM (inactive)	–	48.9 µM	> 100 µM (inactive)	35.8 µM (inactive)	39.6 µM (inactive)	> 100 µM (inactive)	> 100 µM (inactive)	> 100 µM (inactive)	97.9 µM (inactive)	> 100 µM (inactive)	75.2 µM (inactive)	> 100 µM (inactive)
CNS(=O)(=O)NN(C)S(=O)(=O)c1ccc(Cl)cc1	–	83 µM (inactive)	> 100 µM (inactive)	–	> 100 µM (inactive)	–	> 100 µM (inactive)	–	> 100 µM	98.4 µM (inactive)	> 100 µM (inactive)	> 100 µM (inactive)	> 100 µM (inactive)	> 100 µM (inactive)	> 100 µM (inactive)	> 100 µM (inactive)	> 100 µM (inactive)	–	> 100 µM (inactive)
CC(=O)NC(Cc1ccccc1)NC(=O)O (stereo not drawn)	–	> 100 µM (inactive)	> 100 µM (inactive)	> 100 µM (inactive)	> 100 µM (inactive)	> 100 µM (inactive)	> 100 µM (inactive)	> 100 µM (inactive)	> 100 µM	> 100 µM (inactive)	> 100 µM (inactive)	> 100 µM (inactive)	> 100 µM (inactive)	> 100 µM (inactive)	> 100 µM (inactive)	> 100 µM (inactive)	> 100 µM (inactive)	> 100 µM (inactive)	> 100 µM (inactive)

Reference: ChEMBL document CHEMBL1201862, “PubChem BioAssay data set” (2004)
